Data set [1] concerns the target T1, P2Y1 receptor (Homo sapiens, UniProt P47900). Nature of the data set: cell-based.
Source text: (§1) The pharmaceutical utility of compounds of this invention are indicated by the inositol phosphate assay for P2Y2 and other P2Y receptor activity. […] 116, 1619-27 (1995), relies on the measurement of inositol phosphate formation as a measurement of activity of compounds activating receptors linked via G-proteins to phospholipase C.
The target in data set [2] is T1, P2Y1 receptor. Nature of the data set: inositol phosphate assay, P2Y1 receptor activity. Particulars: inositol phosphate formation.
Source text: as §1
The next data set addresses P2Y2 receptor (Homo sapiens, UniProt P41231). Nature of the data set: inositol phosphate assay, P2Y2 receptor activity.
The target in the next data set is P2Y4 receptor (Homo sapiens, UniProt P51582). In words: inositol phosphate assay, P2Y4 receptor activity.
P2Y4 receptor, sequence (P51582 whole entry): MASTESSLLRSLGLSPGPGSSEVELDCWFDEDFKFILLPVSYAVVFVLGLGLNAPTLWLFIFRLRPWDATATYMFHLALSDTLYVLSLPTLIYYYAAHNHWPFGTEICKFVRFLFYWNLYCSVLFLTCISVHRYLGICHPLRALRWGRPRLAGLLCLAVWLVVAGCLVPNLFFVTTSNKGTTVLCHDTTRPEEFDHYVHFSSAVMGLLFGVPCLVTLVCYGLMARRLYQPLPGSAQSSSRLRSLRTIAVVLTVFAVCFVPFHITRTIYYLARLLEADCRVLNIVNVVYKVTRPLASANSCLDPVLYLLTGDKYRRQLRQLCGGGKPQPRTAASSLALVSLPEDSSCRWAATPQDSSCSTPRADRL
For a further data set, the target named is P2Y6 receptor (Homo sapiens, UniProt Q15077). In words: inositol phosphate assay, P2Y6 receptor activity.
P2Y6 receptor, sequence (Q15077 whole entry): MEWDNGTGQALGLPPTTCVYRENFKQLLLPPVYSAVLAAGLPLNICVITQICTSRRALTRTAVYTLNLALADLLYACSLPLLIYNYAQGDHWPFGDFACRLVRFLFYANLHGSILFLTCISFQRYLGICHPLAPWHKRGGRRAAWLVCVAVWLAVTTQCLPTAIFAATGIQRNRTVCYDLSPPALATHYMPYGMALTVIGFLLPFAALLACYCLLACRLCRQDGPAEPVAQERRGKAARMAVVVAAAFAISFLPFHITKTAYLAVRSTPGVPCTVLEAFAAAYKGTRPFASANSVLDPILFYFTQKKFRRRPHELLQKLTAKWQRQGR
For data set [3] the following is noted: normal volunteers; cited from earlier work.
[4] abbreviates: read-out: EC50 P2Y2, inositol phosphate formation.
[5] abbreviates: read-out: EC50 P2Y4, inositol phosphate formation.
Where [6] appears, read: read-out: EC50 P2Y6, inositol phosphate formation.

Counter-ions that a name gives are not always drawn. Like-named read-outs stand apart in the source and are kept apart here.

T1 sequence (P47900 whole entry): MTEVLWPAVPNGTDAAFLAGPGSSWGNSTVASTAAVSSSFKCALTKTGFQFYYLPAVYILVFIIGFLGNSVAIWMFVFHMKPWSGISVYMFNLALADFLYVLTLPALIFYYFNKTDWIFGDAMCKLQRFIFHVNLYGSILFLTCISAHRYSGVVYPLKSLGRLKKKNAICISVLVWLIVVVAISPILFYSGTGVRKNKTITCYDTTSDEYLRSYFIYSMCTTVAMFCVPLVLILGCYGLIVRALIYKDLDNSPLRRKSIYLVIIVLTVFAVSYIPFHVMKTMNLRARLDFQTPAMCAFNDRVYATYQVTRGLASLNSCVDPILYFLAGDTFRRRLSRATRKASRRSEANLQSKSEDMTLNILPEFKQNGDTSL
P2Y2 receptor, sequence (P41231 whole entry): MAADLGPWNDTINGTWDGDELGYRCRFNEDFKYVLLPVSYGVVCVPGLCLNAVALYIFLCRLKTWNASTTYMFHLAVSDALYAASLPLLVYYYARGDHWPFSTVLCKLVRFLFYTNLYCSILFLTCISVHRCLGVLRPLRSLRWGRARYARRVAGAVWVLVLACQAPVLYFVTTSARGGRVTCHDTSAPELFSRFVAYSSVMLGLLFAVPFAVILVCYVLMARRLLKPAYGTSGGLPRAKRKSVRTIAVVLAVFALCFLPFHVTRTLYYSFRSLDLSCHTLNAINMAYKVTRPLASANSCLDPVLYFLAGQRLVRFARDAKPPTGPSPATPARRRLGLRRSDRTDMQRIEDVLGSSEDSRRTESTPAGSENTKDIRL
Source text for P2Y2 receptor: as §1
Source text for P2Y4 receptor: as §1
Source text for P2Y6 receptor: as §1

Turning to `O=c1ccn([C@@H]2O[C@H](COP(=O)(O)OP(=O)(O)OP(=O)(O)OP(=O)(O)OP(=O)(O)OC[C@H]3O[C@@H](n4ccc(=O)[nH]c4=O)[C@H](O)[C@@H]3O)[C@@H](O)[C@H]2O)c(=O)[nH]1` [Example 5, P^1,P^5-Di(uridine 5′-pentaphosphate)], the EC50 (as a rule, the concentration that produces a half-maximal response) on P2Y1 receptor [1] worked out at 31.2 µM; at P2Y2 receptor, 3.8 µM; at P2Y4 receptor, 2.87 µM; on P2Y6 receptor, 92.6 µM. Besides, at P2Y1 receptor [2], the “Percentage response of same study positive control, P2Y1” value was 55%. Further, the “Percentage response of same study positive control, P2Y2” value at P2Y2 receptor (inositol phosphate formation) is reported as 80%.
As for `O=c1ccn([C@@H]2O[C@H](COP(=O)(O)OP(=O)(O)OP(=O)(O)OP(=O)(O)OC[C@H]3O[C@@H](n4ccc(=S)[nH]c4=O)[C@H](O)[C@@H]3O)[C@@H](O)[C@H]2O)c(=O)[nH]1` [Example 9, P^1-(4-Thiouridine 5′-)P^4-(uridine 5′-)tetraphosphate], the 50% effective concentration (EC50) at P2Y1 receptor [1] is more than 100 µM; on P2Y2 receptor, 0.37 µM; at P2Y4 receptor it was 4.16 µM; at P2Y6 receptor it was 1.79 µM.
In the case of `O=c1ccn([C@@H]2O[C@H](COP(=O)(O)OP(=O)(O)OP(=O)(O)OP(=O)(O)OC[C@H]3O[C@@H](n4ccc(=O)[nH]c4=O)C[C@@H]3O)[C@@H](O)[C@H]2O)c(=O)[nH]1` [Example 12, P^1-(2′-deoxyuridine 5′-)-P^4-(uridine 5′-)tetraphosphate], the concentration giving a half-maximal response (EC50) is 0.1 µM at P2Y2 receptor, 0.39 µM at P2Y4 receptor and 0.92 µM on P2Y6 receptor.
In the case of `Cc1cn([C@H]2C[C@H](N=[N+]=[N-])[C@@H](COP(=O)(O)OP(=O)(O)OP(=O)(O)OP(=O)(O)OC[C@H]3O[C@@H](n4ccc(=O)[nH]c4=O)[C@H](O)[C@@H]3O)O2)c(=O)[nH]c1=O` [Example 13, P^1-(3′-Azido-3′-deoxythymidine 5′-)-P^4-(uridine 5′-)tetraphosphate], the results for the EC50 at P2Y2 receptor, on P2Y4 receptor and at P2Y6 receptor were 0.2 µM, 0.13 µM and 0.54 µM, respectively.
Take `O=c1ccn([C@@H]2O[C@H](COP(=O)(O)OP(=O)(O)CP(=O)(O)OP(=O)(O)OC[C@H]3O[C@@H](n4ccc(=O)[nH]c4=O)[C@H](O)[C@@H]3O)[C@@H](O)[C@H]2O)c(=O)[nH]1` [Example 1, P^1,P^4-Di(uridine 5′-)P^2,P^3-methylenetetraphosphate]: the EC50 on P2Y2 receptor was more than 100 µM; on P2Y4 receptor it was 11.1 µM. In addition, the “Percentage response of same study positive control, P2Y4” value (shortened to “Percentage response … P2Y4”) on P2Y4 receptor (inositol phosphate formation) is given as 60%. The “EC50 P2Y6” value at P2Y6 receptor (inositol phosphate formation) is recorded as “IA (Response < 2-fold basal)”.
Take `O=c1ccn([C@@H]2O[C@H](COP(=O)(O)OP(=O)(O)OP(=O)(O)O)[C@@H](O)[C@H]2O)c(=O)[nH]1` [UTP, uridine 5′-triphosphate]: in data set [3], the “improvement in lung mucociliary clearance” value was 2.5 fold and the side-effects result was “without any significant side-effects”.
With `O=c1ccn([C@@H]2O[C@H](COP(=O)(O)OP(=O)(O)C(F)(F)P(=O)(O)OP(=O)(O)OC[C@H]3O[C@@H](n4ccc(=O)[nH]c4=O)[C@H](O)[C@@H]3O)[C@@H](O)[C@H]2O)c(=O)[nH]1` [Example 2, P^1,P^4-Di(uridine 5′-P^2,P^3-difluoromethylenetetraphosphate)], the results for the concentration for a half-maximal effect (EC50) on P2Y2 receptor, at P2Y4 receptor and at P2Y6 receptor were 5.71 µM, 1 µM and more than 100 µM, respectively. Further, the “Percentage response … P2Y4” value on P2Y4 receptor (inositol phosphate formation) came out at 80%.
With `O=c1ccn([C@@H]2O[C@H](COP(=O)(O)OP(=O)(O)OP(=O)(O)OP(=O)(O)OP(=O)(O)OP(=O)(O)OC[C@H]3O[C@@H](n4ccc(=O)[nH]c4=O)[C@H](O)[C@@H]3O)[C@@H](O)[C@H]2O)c(=O)[nH]1` [Example 14, P^1,P^6-Di(uridine-5′-)hexaphosphate], the values for the 50% effective concentration (EC50) on P2Y2 receptor (setting [4]), on P2Y4 receptor (setting [5]) and at P2Y6 receptor (setting [6]) were 10.7 µM, 14.7 µM and 3.5 µM, respectively.
For the molecule `O=c1n([C@@H]2O[C@H](COP(=O)(O)OP(=O)(O)OP(=O)(O)OP(=O)(O)OC[C@H]3O[C@@H](n4ccc5nc(-c6cccc([N+](=O)[O-])c6)cn5c4=O)[C@H](O)[C@@H]3O)[C@@H](O)[C@H]2O)ccc2nc(-c3cccc([N+](=O)[O-])c3)cn12` [Example 6a, P^1,P^4-Di(imidazo[1,2-c]pyrimidin-5(6H)-one-2-(3-nitro)-phenyl-6-β-D-ribofuranoside 5′-)tetraphosphate, tetraammonium salt], the EC50 was found to be 0.3 µM on P2Y2 receptor, 0.06 µM at P2Y4 receptor and 0.87 µM at P2Y6 receptor.
As for `O=c1n([C@@H]2O[C@H](COP(=O)(O)OP(=O)(O)OP(=O)(O)OP(=O)(O)OC[C@H]3O[C@@H](n4ccc5nccn5c4=O)[C@H](O)[C@@H]3O)[C@@H](O)[C@H]2O)ccc2nccn12` [Example 6, P^1,P^4-Di(3,N^4-ethenocytidine 5′-)tetraphosphate], the figures for the concentration giving a half-maximal response (EC50) on P2Y1 receptor [1], at P2Y2 receptor and at P2Y4 receptor were more than 100 µM, 0.46 µM and 19.8 µM, respectively. Moreover, the “Percentage response … P2Y4” value on P2Y4 receptor (inositol phosphate formation) is 75%. Further, the “EC50 P2Y6” value on P2Y6 receptor (inositol phosphate formation) is on record as “IA (Response < 2-fold basal)”.
As to `Nc1ccn([C@@H]2O[C@H](COP(=O)(O)OP(=O)(O)OP(=O)(O)OP(=O)(O)OC[C@H]3O[C@@H](n4ccc(=O)[nH]c4=O)[C@H](O)[C@@H]3O)[C@@H](O)[C@@H]2O)c(=O)n1` [Example 10, P^1-(Cytosine β-D-arabinofuranoside 5′-)P^4-(uridine 5′-)tetraphosphate], the EC50 on P2Y2 receptor came to 0.19 µM; at P2Y4 receptor it was 0.32 µM; at P2Y6 receptor, 1.3 µM. The “Percentage response … P2Y4” value at P2Y4 receptor (inositol phosphate formation) stood at 65%.
“P^1,P^4-Di(2′(3′)-benzoyl uridine 5′-)tetraphosphate [Example 16]”: the “EC50 P2Y1” value at P2Y1 receptor [2] is recorded as “IA (Response < 2-fold basal)”. In addition, the EC50 was 0.79 µM at P2Y2 receptor (setting [4]), 0.73 µM on P2Y4 receptor (setting [5]) and 5.33 µM on P2Y6 receptor (setting [6]).
Regarding `O=c1[nH]c(=S)ccn1[C@@H]1O[C@H](COP(=O)(O)OP(=O)(O)OP(=O)(O)OP(=O)(O)OC[C@H]2O[C@@H](n3ccc(=S)[nH]c3=O)[C@H](O)[C@@H]2O)[C@@H](O)[C@H]1O` [Example 4, P^1,P^4-Di(4-thiouridine 5′-tetraphosphate)], the EC50 at P2Y2 receptor was determined as 0.02 µM; at P2Y6 receptor, 0.05 µM. Also, on P2Y6 receptor (inositol phosphate formation), the “Percentage response of same study positive control, P2Y6” value is reported as 20%.
For `O=c1ccn([C@@H]2O[C@H](COP(=O)(O)OP(=O)(O)NP(=O)(O)OP(=O)(O)OC[C@H]3O[C@@H](n4ccc(=O)[nH]c4=O)[C@H](O)[C@@H]3O)[C@@H](O)[C@H]2O)c(=O)[nH]1` [Example 3, P^1,P^4-Di(uridine 5′-P^2,P^3-imidotetraphosphate)], the EC50 on P2Y1 receptor [1] is 3.67 µM; at P2Y2 receptor, 0.63 µM; on P2Y4 receptor, 1.19 µM; at P2Y6 receptor it was 2.56 µM.
Take `Cc1cn([C@H]2C[C@H](O)[C@@H](COP(=O)(O)OP(=O)(O)OP(=O)(O)OP(=O)(O)OC[C@H]3O[C@@H](n4ccc(=O)[nH]c4=O)[C@H](O)[C@@H]3O)O2)c(=O)[nH]c1=O` [Example 7, P^1-(Thymidine-5′-)P^4-(uridine-5′-)tetraphosphate]: the values for the EC50 on P2Y2 receptor, at P2Y4 receptor and at P2Y6 receptor were 0.11 µM, 0.2 µM and 0.88 µM, respectively.
Take `O=c1ccn([C@@H]2O[C@H](COP(=O)(O)OP(=O)(O)OP(=O)(O)OP(=O)(O)OC[C@H]3O[C@@H](n4cnc5c(=O)[nH]c(=O)[nH]c54)[C@H](O)[C@@H]3O)[C@@H](O)[C@H]2O)c(=O)[nH]1` [Example 11, P^1-(Uridine 5′-)-P^4-(xanthosine 5′-)tetraphosphate]: the half-maximal effective concentration (EC50) on P2Y2 receptor worked out at 0.13 µM; at P2Y4 receptor, 0.38 µM; on P2Y6 receptor it was 3.39 µM. The “Percentage response … P2Y4” value on P2Y4 receptor (inositol phosphate formation) came out at 75%.
Take “2′(3′)-Benzoyl-P^1,P^4-di(uridine 5′-)tetraphosphate [Example 15]”: at P2Y1 receptor [2], the “EC50 P2Y1” value is recorded as “IA (Response < 2-fold basal)”. In addition, the results for the EC50 at P2Y2 receptor (setting [4]), at P2Y4 receptor (setting [5]) and on P2Y6 receptor (setting [6]) were 0.64 µM, 3.72 µM and 9.71 µM, respectively.
For `O=c1ccn([C@@H]2O[C@H](COP(=O)(O)OP(=O)(O)OP(=O)(O)OP(=O)(O)OC[C@H]3O[C@@H](n4cnc5c(=O)[nH]cnc54)[C@H](O)[C@@H]3O)[C@@H](O)[C@H]2O)c(=O)[nH]1` [Example 8, P^1-(Inosine 5′-)P^4-(uridine 5′-)tetraphosphate], the concentration giving a half-maximal response (EC50) on P2Y2 receptor came out at 0.11 µM; on P2Y4 receptor, 0.15 µM; on P2Y6 receptor it was 0.8 µM.

Source of the values: patent US6977246B2, “Certain dinucleotides and their use as modulators of mucociliary clearance and ciliary beat frequency” (Inspire Pharmaceuticals, Inc., priority 1997, dated 2005).
